Laboratory results from patent publication US5334589A, “Quinolone carboxylic acid--metal ion--acid complexes” (Abbott Laboratories, priority 1992, dated 1994).
Like-named read-outs stand apart in the source and are kept apart here.

How the values were obtained:
rat tail vein = test: Vein irritation in rats (rat tail vein model); conditions: 100 mg/kg/day i.v., normal saline; for Normalized Rank: 5=normal
Description: Three studies were conducted: In Study I, four rats per group were given test compositions for three consecutive days at a concentration of 4 mg/ml (this and other concentrations expressed in terms of equivalent weight of temafloxacin base); in Study II, three rats per group were given test compositions for five consecutive days at 6 mg/ml; and in Study III, two groups of three rats each were given test compositions for five consecutive days at 4 mg/ml and 8 mg/ml, respectively. All rats were dosed at 100 mg/kg/day, with an infusion rate of 0.3 ml/minute.
Each rat was observed twice after each infusion: Once after 1-to-2 hours following injection, and again after 24 hours. Discoloration was ranked as follows:
4=Single red/pink spot of discoloration
3=Multiple red/pink spots of discoloration
2=Single purple spot of discoloration
1=Multiple purple spots of discoloration
0=Approx. one-fourth of distal tail discolored purple
Aggregate rankings were totaled for each group over the course of each study.

Solubility = assay type: physicochemical

## CC1CN(c2cc3c(cc2F)c(=O)c(C(=O)O)cn3-c2ccc(F)cc2F)CCN1 (stereo not drawn) [Control A]
Rat tail vein; Study I, 4 mg/ml, three consecutive days, group total / number of animals / number of measurements, 0=worst
  Normalized Rank: 2.29
Rat tail vein; Study I, 4 rats, 4 mg/ml, three consecutive days, discoloration rank 5=normal to 0=one-fourth of distal tail purple
  Total Rank: 55

## CC1CN(c2cc3c(cc2F)c(=O)c(C(=O)O)cn3-c2ccc(F)cc2F)CCN1 (stereo not drawn) [Control B]
Rat tail vein; Study II, 6 mg/ml, five consecutive days, 0=worst
  Normalized Rank: 3.23
Rat tail vein; Study II, 3 rats, 6 mg/ml, five consecutive days, rank 5=normal, 0=worst
  Total Rank: 97

## CC1CN(c2cc3c(cc2F)c(=O)c(C(=O)O)cn3-c2ccc(F)cc2F)CCN1 (stereo not drawn) [temafloxacin, 1-(2,4-difluorophenyl)-6-fluoro-1,4-dihydro-7-(3-methyl-l-piperazinyl)-4-oxo-3-quinoline carboxylic acid]
Solubility; about pH 4 to about pH 10, read-out: solubility
  solubility: < 500 µg/mL
Solubility; temafloxacin base in water, read-out: solubility in water
  solubility: < 500 µg/mL
